# Results: patent US11530265B2, “Multipartite signaling proteins and uses thereof” (2seventy bio, Inc., priority 2013, dated 2022)
# Where two headings read alike, the source gives them in different places.
# Columns and labels:
# K562-CD19 target cells = experiment: Cytotoxicity of IVT-mRNA electroporated T cells encoding DARIC components against K562-CD19/K562-CD20 mixture (flow cytometry); assay type: cell-based, human
# Experimental: Recombinant T cells expressing the two DARIC components were incubated with K562 target cells (a human myeloid leukemia cell line), which were modified to express either CD19 or CD20 antigen, to examine target cell lysis. Briefly, T cells were co-incubated with a 50:50 mixture of K562-CD19 and K562-CD20 target cell lines, at 3:1 or 10:1 T cell to target cell ratios. […] The relative percentage of each of the target cell lines was monitored by flow cytometry staining for the CD19 and CD20 antigens to evaluate cell lysis (see FIG. 3).
# Four samples of primary human T cells were prepared by electroporation with IVT-mRNA encoding (i) an extensively validated single-chain chimeric antigen receptor (CAR) (CD19-CAR, SEQ ID NO.:14, positive control); (ii) the DARIC signaling component only (DSC, SEQ ID NO.:16, negative control); iii) the DARIC binding component only (DBC-CD19, SEQ ID NO.:2, negative control); and (iv) both DARIC binding and signaling components (DSC, SEQ ID NO.:16 plus DBC-CD19, SEQ ID NO.:2). The relative percentages of each of the target cell lines were monitored by flow cytometry staining for the CD19 and CD20 antigens (FIG. 3A).
# The percent specific cytotoxicity was calculated for each condition as the percentage change relative the input K562-CD19:K562-CD20 ratio.
# [1] = tested on: CD19 expressing K562 target cells; experiment: Cytokine secretion of T cells encoding DARIC components co-incubated with K562 target cells (Cytokine Bead Array); assay type: cell-based, human
# Experimental: Recombinant T cells expressing the two DARIC components were incubated with K562 target cells (a human myeloid leukemia cell line), which were modified to express either CD19 or CD20 antigen, to examine cytokine expression. […] Supernatants were isolated for analysis of cytokine production (see FIG. 4).
# Two samples of primary human T cells were isolated, expanded, and then prepared by electroporation with IVT-mRNA encoding either (i) the validated single-chain CAR (CD19-CAR, SEQ ID NO.:[…], positive control); or (ii) both DARIC binding and signaling components (DSC, SEQ ID NO.:16 plus DBC-CD19, SEQ ID NO.:2). […] The supernatants were then collected and assayed for analyte concentrations using cytokine capture antibody-labeled beads (Becton Dickenson Cytokine Bead Array, human Th1/Th2 kit). Comparison with recombinant protein standards enabled calculation of absolute concentrations of each of the six cytokines encompassed by the bead array.
# K562-CD19 cells = conditions: for cytotoxicity responses on titration of bridging factor: DARIC expressing T cells, broad range of drug concentrations
# Experimental: The transduced T cells were then co-incubated with about a 50:50 mixture of the K562 target cells expressing either CD19 (K562-CD19) or CD20 (K562-CD20) to evaluate antigen-specific cytotoxicity. […] The DARIC antigen binding component includes a CD19 antigen binding scFv domain and a FKBP12 multimerization domain, which was linked to a mCherry fluorescent protein.
# A series of additional DARIC molecules, in which the antigen binding component was maintained on the T cell surface rather than released into the extracellular space, were tested (see, e.g., FIG. 1I). Several protein regions and transmembrane domains were used to anchor the binding domain to the T cell surface (SEQ ID NOS.:50, 53, 56, 59), each altering the spacing or steric parameters governing multimerization of the DARIC binding and signaling components.
# Deactivation of the DARIC system by the addition of a pharmacological agent that competes for binding to one of the multimerization domains was tested. Primary human T cells expressing either a traditional CD19 targeting CAR or primary human T cells expressing the CD19 targeting DARIC components (SEQ ID NO.:66) were co-incubated with 50:50 mixtures of K562-CD19 and K562-CD20 cells.
# K562-CD123 target cells = experiment: Antigen-specific cytotoxicity of lentivirus-transduced T cells against 50:50 K562-CD19/K562-CD123; assay type: cell-based, human; conditions: sample containing rapamycin; T:K562 5:1
# Source text: The DARIC system was extended to an additional model antigen to show the broad applicability of artificial cells expressing drug regulated multipartite receptors templated herein. K562 target cell lines were generated to express the CD123 antigen by sub-cloning this antigen into a lentiviral vector comprising a puromycin selection cassette (SEQ ID NO.:74), lentiviral particles were produced, and K562 cells were infected and selected with puromycin.
# [2] = T cells expressing DARIC components (DSC plus DBC-CD19), 500 nM AP21967, 1:1
molecule,measurement,setting,value
both DARIC components: T cells expressing both DARIC binding and signaling components,specific cytotoxicity,"K562-CD19 target cells; T cells expressing both DARIC components, without addition of AP21967",no significant cytotoxicity
same,cytokine production,"[1]; T cells expressing DARIC components, absence of bridging factor AP21967",no significant cytokine production
C=CC[C@@H]1/C=C(\C)C[C@H](C)C[C@H](OC)[C@H]2O[C@@](O)(C(=O)C(=O)N3CCCC[C@H]3C(=O)O[C@H](/C(C)=C/[C@@H]3CC[C@@H](O)[C@H](OC)C3)[C@H](C)[C@@H](O)CC1=O)[C@H](C)C[C@@H]2OC [FK506],change in antigen specific cytotoxicity on addition of anti-bridging factor,K562-CD19 cells; CD19 targeting CAR T cells,minimal reduction
same,change in antigen specific cytotoxicity on addition of anti-bridging factor,K562-CD19 cells; CD19 targeting DARIC T cells with rapamycin,marked reduction
CO[C@H]1C[C@@H]2CC[C@@H](C)[C@@](O)(O2)C(=O)C(=O)N2CCCC[C@H]2C(=O)O[C@H]([C@H](C)C[C@@H]2CC[C@@H](OCCO)[C@H](OC)C2)CC(=O)[C@H](C)/C=C(\C)[C@@H](O)[C@@H](OC)C(=O)[C@H](C)C[C@H](C)/C=C/C=C/C=C/1C [everolimus],cytotoxicity responses on titration of bridging factor,K562-CD19 cells; T:K562 5:1,maintained to sub-nanomolar drug concentrations
CO[C@H]1C[C@@H]2CC[C@@H](C)[C@@](O)(O2)C(=O)C(=O)N2CCCC[C@H]2C(=O)O[C@H]([C@H](C)C[C@@H]2CC[C@@H](O)[C@H](OC)C2)CC(=O)[C@H](C)/C=C(\C)[C@@H](O)[C@@H](OC)C(=O)[C@H](C)C[C@H](C)/C=C/C=C/C=C/1C [rapamycin],cytotoxicity responses on titration of bridging factor,K562-CD19 cells; T:K562 5:1,maintained to sub-nanomolar drug concentrations
same,cytotoxicity response,"K562-CD19 cells; mixed T cell populations, one expressing DARIC antigen binding component, the other DARIC signaling component",cytotoxicity response against K562-CD19 cells
same,antigen specific cytotoxicity,"K562-CD19 cells; swapped DARIC: binding component DmrC, signaling component DmrA (SEQ ID NOs.:12, 31), samples containing rapamycin",Antigen specific cytotoxicity was observed
SS-DmrC-CD8TM-41BB-CD3z-P2A-SS-CD123scFv-DmrA-CD4TM protein [CD123 DARIC],cytotoxicity,K562-CD123 target cells,Cytotoxicity was observed
"CO[C@H]1[C@@H](O)[C@H](C)C[C@H](C)/C=C/C=C/C=C(\C)[C@@H](c2c[nH]c3c(C)cccc23)C[C@@H]2CC[C@@H](C)[C@@](O)(O2)C(=O)C(=O)N2CCCC[C@H]2C(=O)O[C@H]([C@H](C)C[C@@H]2CC[C@@H](O)[C@H](OC)C2)C[C@H](O)[C@H](C)/C=C(\C)[C@H]1O [AP21967, C-16-(S)-7-methylindolerapamycin]",specific cytotoxicity,"K562-CD19 target cells; T cells expressing both DARIC components (DSC plus DBC-CD19), 500 nM AP21967",substantial specific cytoxicity
same,IFNγ production,[1]; [2],"equivalent, or superior, to the single chain CD19-CAR positive control"
same,IL-2 production,[1]; [2],"equivalent, or superior, to the single chain CD19-CAR positive control"
same,elimination of CD19 expressing K562 cells,"K562-CD19 cells; T cells with DARIC signaling component FRB (2021-2113) T2098L, T:K562 5:1, rapamycin 10 nM or AP21967 100 nM",elimination of the CD19 expressing K562 cells
same,elimination of K562-CD19 cells,"K562-CD19 cells; T cells with DARIC signaling component FRB dimerization domain, T:K562 5:1, rapamycin 10 nM or AP21967 100 nM",no effect on cell survival
SS-FRB(T2098L)-TM-41BB-CD3z mRNA [DARIC signaling component],specific cytotoxicity,"K562-CD19 target cells; primary human T cells electroporated with IVT-mRNA, 50:50 K562-CD19/K562-CD20, 3:1 or 10:1 T cell to target cell ratio",no significant cytotoxicity
